Test system: 935938-334-R-J1-PDC complex spheroid viability
Experiment: Anticancer human tumor 935938-334-R-J1-PDC patient-derived small intestine adenocarcinoma cell line growth inhibition [POLQ]
Settings: for IC50: curve of first compound; for viability, T/C: stronger effect = lower value
How it was run: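 Growth inhibition in 3D: complex spheroids (tumor PDC, HUVEC, MSC) treated with POLQ inhibitor combinations; where Cmax unknown, highest tested concentration 10 microM, except SN-38 at 1 microM.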

[1] = second compound 0.0316 µM, first compound 0.00316 µM
[2] = second compound 0.0316 µM, first compound 0.01 µM
[3] = second compound 0.0316 µM, first compound 0.0316 µM
[4] = second compound 0.0316 µM, first compound 0.1 µM
[5] = second compound 0.0316 µM, first compound 0.316 µM
[6] = second compound 0.0316 µM, first compound 1 µM
[7] = second compound 0.1 µM, first compound 0.00316 µM
[8] = second compound 0.1 µM, first compound 0.01 µM
[9] = second compound 0.1 µM, first compound 0.0316 µM
[10] = second compound 0.1 µM, first compound 0.1 µM
[11] = second compound 0.1 µM, first compound 0.316 µM
[12] = second compound 0.1 µM, first compound 1 µM
[13] = second compound 0.316 µM, first compound 0.00316 µM
[14] = second compound 0.316 µM, first compound 0.01 µM
[15] = second compound 0.316 µM, first compound 0.0316 µM
[16] = second compound 0.316 µM, first compound 0.1 µM
[17] = second compound 0.316 µM, first compound 0.316 µM
[18] = second compound 0.316 µM, first compound 1 µM
[19] = second compound 1 µM, first compound 0.00316 µM
[20] = second compound 1 µM, first compound 0.01 µM
[21] = second compound 1 µM, first compound 0.0316 µM
[22] = second compound 1 µM, first compound 0.1 µM
[23] = second compound 1 µM, first compound 0.316 µM
[24] = second compound 1 µM, first compound 1 µM
[25] = second compound 3.16 µM, first compound 0.00316 µM
[26] = second compound 3.16 µM, first compound 0.01 µM
[27] = second compound 3.16 µM, first compound 0.0316 µM
[28] = second compound 3.16 µM, first compound 0.1 µM
[29] = second compound 3.16 µM, first compound 0.316 µM
[30] = second compound 3.16 µM, first compound 1 µM
[31] = second compound 10 µM, first compound 0.00316 µM
[32] = second compound 10 µM, first compound 0.01 µM
[33] = second compound 10 µM, first compound 0.0316 µM
[34] = second compound 10 µM, first compound 0.1 µM
[35] = second compound 10 µM, first compound 0.316 µM
[36] = second compound 10 µM, first compound 1 µM
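Note: spheroids exposed to drugs for seven days before viability read.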
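Throughout, for viability, T/C: 100% = DMSO vehicle control wells.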

In the case of `COc1cccc(OCCCN)c1-c1cc(Nc2cnc(C#N)cn2)n[nH]1` + COC1C(OC(N)=O)C(O)C(Oc2ccc3c(O)c(NC(=O)c4ccc(O)c(CC=C(C)C)c4)c(=O)oc3c2C)OC1(C)C, the IC50 (second compound 0.0316 µM) is reported as 49.6 nM, the IC50 (second compound 0.1 µM) is reported as 38.7 nM and the IC50 (second compound 0.316 µM) is reported as 47.9 nM. It also gave an IC50 (second compound 1 µM) of 36.9 nM, an IC50 (second compound 3.16 µM) of 36.9 nM and an IC50 (second compound 10 µM) of 27.8 nM. The viability, T/C [1] was 90.2%, the viability, T/C [2] was 88.9% and the viability, T/C [3] was 65.2%. For the same compound, the viability, T/C [4] was 25.8%, the viability, T/C [5] was 12.1% and the viability, T/C [6] was 9.12%. The viability, T/C [7] was 100%, the viability, T/C [8] was 89.1% and the viability, T/C [9] was 54.5%. The viability, T/C [10] was 25.4%, the viability, T/C [11] was 12.5% and the viability, T/C [12] was 9.92%. For the same compound, the viability, T/C [13] was 89.2%, the viability, T/C [14] was 79.7% and the viability, T/C [15] was 64.2%. It also gave a viability, T/C [16] of 26.6%, a viability, T/C [17] of 10.6% and a viability, T/C [18] of 9.51%. It also gave a viability, T/C [19] of 113%, a viability, T/C [20] of 85.1% and a viability, T/C [21] of 57.5%. It also gave a viability, T/C [22] of 23.7%, a viability, T/C [23] of 11.1% and a viability, T/C [24] of 8.98%. It also gave a viability, T/C [25] of 80.7%, a viability, T/C [26] of 89.8% and a viability, T/C [27] of 52%. For the same compound, the viability, T/C [28] was 22.3%, the viability, T/C [29] was 11.1% and the viability, T/C [30] was 9%. For the same compound, the viability, T/C [31] was 84.4%, the viability, T/C [32] was 91.6% and the viability, T/C [33] was 45.3%. For the same compound, the viability, T/C [34] was 15.4%, the viability, T/C [35] was 11.8% and the viability, T/C [36] was 8.31%.

`Cn1ncnc1[C@H]1c2n[nH]c(=O)c3cc(F)cc(c23)N[C@@H]1c1ccc(F)cc1` + Cc1cccc(N(C)C(=O)C2C(O)CCN2c2nc(C)cc(C(F)(F)F)c2C#N)c1 was tested, and the IC50 (second compound 0.0316 µM) was > 100 nM, the IC50 (second compound 0.1 µM) was > 100 nM and the IC50 (second compound 0.316 µM) was > 100 nM. For the same compound, the IC50 (second compound 1 µM) was > 100 nM, the IC50 (second compound 3.16 µM) was > 100 nM and the IC50 (second compound 10 µM) was > 100 nM. The viability, T/C (second compound 0.0316 µM, first compound 0.000316 µM) was 143%, the viability, T/C (second compound 0.0316 µM, first compound 0.001 µM) was 88.6% and the viability, T/C [1] was 102%. The viability, T/C [2] was 94.5%, the viability, T/C [3] was 97.8% and the viability, T/C [4] was 102%. The viability, T/C (second compound 0.1 µM, first compound 0.000316 µM) was 85.5%, the viability, T/C (second compound 0.1 µM, first compound 0.001 µM) was 91.3% and the viability, T/C [7] was 107%. For the same compound, the viability, T/C [8] was 143%, the viability, T/C [9] was 111% and the viability, T/C [10] was 70%. The viability, T/C (second compound 0.316 µM, first compound 0.000316 µM) was 108%, the viability, T/C (second compound 0.316 µM, first compound 0.001 µM) was 107% and the viability, T/C [13] was 80.5%. It also gave a viability, T/C [14] of 108%, a viability, T/C [15] of 91% and a viability, T/C [16] of 83.4%. It also gave a viability, T/C (second compound 1 µM, first compound 0.000316 µM) of 89.8%, a viability, T/C (second compound 1 µM, first compound 0.001 µM) of 99.6% and a viability, T/C [19] of 97.7%. For the same compound, the viability, T/C [20] was 82.1%, the viability, T/C [21] was 114% and the viability, T/C [22] was 60.4%. For the same compound, the viability, T/C (second compound 3.16 µM, first compound 0.000316 µM) was 125%, the viability, T/C (second compound 3.16 µM, first compound 0.001 µM) was 80.8% and the viability, T/C [25] was 105%. The viability, T/C [26] was 88.5%, the viability, T/C [27] was 89.9% and the viability, T/C [28] was 89.6%. It also gave a viability, T/C (second compound 10 µM, first compound 0.000316 µM) of 103%, a viability, T/C (second compound 10 µM, first compound 0.001 µM) of 87.5% and a viability, T/C [31] of 77.6%. The viability, T/C [32] was 118%, the viability, T/C [33] was 87.9% and the viability, T/C [34] was 89%.

In the case of `CC(C)n1c(=O)n(C)c2cnc3cc(F)c(-c4ccc(OCCCN5CCCCC5)nc4)cc3c21` + Nc1ccc(C#CCN(C(=O)Cc2ncc(C(F)(F)F)cc2C(F)(F)F)c2ccc(F)cc2)nn1, the IC50 (second compound 0.0316 µM) is reported as > 10000 nM, the IC50 (second compound 0.1 µM) is reported as > 10000 nM and the IC50 (second compound 0.316 µM) is reported as > 10000 nM. For the same compound, the IC50 (second compound 1 µM) was > 10000 nM, the IC50 (second compound 3.16 µM) was > 10000 nM and the IC50 (second compound 10 µM) was > 10000 nM. For the same compound, the viability, T/C [3] was 94.3%, the viability, T/C [4] was 84.3% and the viability, T/C [5] was 132%. It also gave a viability, T/C [6] of 82.9%, a viability, T/C (second compound 0.0316 µM, first compound 3.16 µM) of 90.5% and a viability, T/C (second compound 0.0316 µM, first compound 10 µM) of 79.4%. It also gave a viability, T/C [9] of 100%, a viability, T/C [10] of 102% and a viability, T/C [11] of 111%. It also gave a viability, T/C [12] of 84.9%, a viability, T/C (second compound 0.1 µM, first compound 3.16 µM) of 117% and a viability, T/C (second compound 0.1 µM, first compound 10 µM) of 90.6%. It also gave a viability, T/C [15] of 101%, a viability, T/C [16] of 99.4% and a viability, T/C [17] of 84.9%. For the same compound, the viability, T/C [18] was 101%, the viability, T/C (second compound 0.316 µM, first compound 3.16 µM) was 113% and the viability, T/C (second compound 0.316 µM, first compound 10 µM) was 98.4%. It also gave a viability, T/C [21] of 120%, a viability, T/C [22] of 77.8% and a viability, T/C [23] of 102%. It also gave a viability, T/C [24] of 113%, a viability, T/C (second compound 1 µM, first compound 3.16 µM) of 128% and a viability, T/C (second compound 1 µM, first compound 10 µM) of 85.7%. The viability, T/C [27] was 93.2%, the viability, T/C [28] was 97.7% and the viability, T/C [29] was 98.2%. For the same compound, the viability, T/C [30] was 92.4%, the viability, T/C (second compound 3.16 µM, first compound 3.16 µM) was 100% and the viability, T/C (second compound 3.16 µM, first compound 10 µM) was 94.4%. For the same compound, the viability, T/C [33] was 107%, the viability, T/C [34] was 88.8% and the viability, T/C [35] was 82.9%. It also gave a viability, T/C [36] of 107%, a viability, T/C (second compound 10 µM, first compound 3.16 µM) of 110% and a viability, T/C (second compound 10 µM, first compound 10 µM) of 109%.

Reference: PubChem BioAssay AID1963829 (Molecular Pharmacology Branch, DTP, NCI, 2024)
